Results from the NIST ThermoML archive (doi:10.1016/j.jct.2006.08.009).

Test: mn = molality of the nth substance listed, in mol/kg
Details: 350 kPa, Liquid; for apparent molar heat capacity: Extra sensitive DSC

OC[C@@H](O)[C@H](O)[C@@H](O)CO [xylitol] + O
Details | apparent molar heat capacity [J/K/mol] | mass density [kg/m3]
318.15 K, m1 = 1.001 | – | 1034.54
318.15 K, m1 = 1.498 | – | 1053.25
318.15 K, m1 = 1.997 | – | 1070.4
318.15 K, m1 = 2.701 | – | 1092.04
323.15 K, m1 = 0.0499 | 368.1 | –
323.15 K, m1 = 0.1 | 376.3 | –
323.15 K, m1 = 0.4001 | 378.3 | –
323.15 K, m1 = 0.7496 | 379.1 | –
323.15 K, m1 = 1.001 | 379.8 | –
323.15 K, m1 = 1.498 | 380.2 | –
323.15 K, m1 = 1.997 | 377 | –
323.15 K, m1 = 2.701 | 381.9 | –
328.15 K, m1 = 0.0499 | 372.9 | 988.29
328.15 K, m1 = 0.1 | 381.3 | 990.59
328.15 K, m1 = 0.4001 | 383.2 | 1004.39
328.15 K, m1 = 0.7496 | 383.8 | 1019.46
328.15 K, m1 = 1.001 | 384.5 | 1029.53
328.15 K, m1 = 1.498 | 384.7 | 1048.03
328.15 K, m1 = 1.997 | 381.6 | 1064.94
328.15 K, m1 = 2.701 | 386.3 | 1086.4
333.15 K, m1 = 0.0499 | 377.6 | –
333.15 K, m1 = 0.1 | 385.7 | –
333.15 K, m1 = 0.4001 | 387.6 | –
333.15 K, m1 = 0.7496 | 388.2 | –
333.15 K, m1 = 1.001 | 388.8 | –
333.15 K, m1 = 1.498 | 389 | –
333.15 K, m1 = 1.997 | 385.9 | –
333.15 K, m1 = 2.701 | 390.4 | –
338.15 K, m1 = 0.0499 | 382 | 983.12
338.15 K, m1 = 0.1 | 389.8 | 985.45
338.15 K, m1 = 0.4001 | 391.8 | 999.12
338.15 K, m1 = 0.7496 | 392.3 | 1014.03
338.15 K, m1 = 1.001 | 392.9 | 1023.97
338.15 K, m1 = 1.498 | 392.9 | 1042.32
338.15 K, m1 = 1.997 | 389.9 | 1059.03
338.15 K, m1 = 2.701 | 394.2 | 1080.39
343.15 K, m1 = 0.0499 | 385 | –
343.15 K, m1 = 0.1 | 393.6 | –
343.15 K, m1 = 0.4001 | 395.5 | –
343.15 K, m1 = 0.7496 | 395.9 | –
343.15 K, m1 = 1.001 | 396.5 | –
343.15 K, m1 = 1.498 | 396.5 | –
343.15 K, m1 = 1.997 | 393.5 | –
343.15 K, m1 = 2.701 | 397.7 | –
348.15 K, m1 = 0.0499 | 389 | 977.37
348.15 K, m1 = 0.1 | 396.9 | 979.76
348.15 K, m1 = 0.4001 | 398.9 | 993.29
348.15 K, m1 = 0.7496 | 399.3 | 1008.12
348.15 K, m1 = 1.001 | 399.9 | 1017.97
348.15 K, m1 = 1.498 | 399.9 | 1036.22
348.15 K, m1 = 1.997 | 397 | 1052.82
348.15 K, m1 = 2.701 | 400.9 | 1074.02
353.15 K, m1 = 0.0499 | 392 | –
353.15 K, m1 = 0.1 | 400 | –
353.15 K, m1 = 0.4001 | 401.9 | –
353.15 K, m1 = 0.7496 | 402.3 | –
353.15 K, m1 = 1.001 | 402.9 | –
353.15 K, m1 = 1.498 | 402.9 | –
353.15 K, m1 = 1.997 | 400.2 | –
353.15 K, m1 = 2.701 | 403.9 | –
358.15 K, m1 = 0.0499 | 394 | 971.43
358.15 K, m1 = 0.1 | 402.5 | 973.65
358.15 K, m1 = 0.4001 | 404.6 | 986.64
358.15 K, m1 = 0.7496 | 404.9 | 1001.31
358.15 K, m1 = 1.001 | 405.5 | 1011.25
358.15 K, m1 = 1.498 | 405.5 | 1029.33
358.15 K, m1 = 1.997 | 403.2 | 1045.42
358.15 K, m1 = 2.701 | 406.4 | 1066.46
363.15 K, m1 = 0.0499 | 396 | –
363.15 K, m1 = 0.1 | 404 | –
363.15 K, m1 = 0.4001 | 405.9 | –
363.15 K, m1 = 0.7496 | 406.2 | –
363.15 K, m1 = 1.001 | 406.8 | –
363.15 K, m1 = 1.498 | 406.7 | –
363.15 K, m1 = 1.997 | 405.9 | –
363.15 K, m1 = 2.701 | 407.6 | –
368.15 K, m1 = 0.0499 | – | 964.45
368.15 K, m1 = 0.1 | – | 966.77
368.15 K, m1 = 0.4001 | – | 980.22
368.15 K, m1 = 0.7496 | – | 994.89
368.15 K, m1 = 1.001 | – | 1004.67
368.15 K, m1 = 1.498 | – | 1022.74
368.15 K, m1 = 1.997 | – | 1039.27
368.15 K, m1 = 2.701 | – | 1060.25
